EC50 data for 9 compounds are collected here from patent publication US20250163009A1, “BENZOTHIA(DIA)ZEPINE COMPOUNDS FOR TREATMENT OF HBV AND HDV” (Assembly Biosciences, Inc., priority 2022, published 2025).

The subject of the assay is HBV. Description: HepG2-NTCP infection protocol, HBeAg quantification by ECL-ELISA. Type of assay: cell-based. As to conditions: HepG2-NTCP cells infected with HBV at MOI 50, compound 24 hours, then 72 hours, HBeAg in supernatant. As for the experimental part:
HepG2 cells expressing the sodium taurocholate cotransporting polypeptide (HepG2-NTCP) were maintained in culture using HepG2-NTCP growth medium (DMEM (HyClone, Cat #SH30243.02) supplemented with 10% FBS, 150 μg/mL G418 (Alfa Aesar, Cat #J62671), 50 U/mL penicillin-streptomycin (Invitrogen, Cat #15140-122), and 0.5 μg/mL blasticidin (Sigma, Cat #15205)). Prior to infection, the cells were washed twice with 1×DPBS (Invitrogen, Cat #14190-136) and treated with 3 mL of 0.05% trypsin (Invitrogen, Cat #25200-056) to dissociate the cells. Following dissociation, 10 mL of HepG2-NTCP growth medium was added to the cells to neutralize the trypsin and the cells were then centrifuged at 1,300 rpm for 5 minutes. Following centrifugation, the cells were resuspended in 10 mL of HepG2-NTCP growth medium, counted, and then centrifuged at 1,300 rpm for 5 minutes. The cell pellet was resuspended in DMEM supplemented with 5% FBS, 50 U/mL penicillin-streptomycin, 4% PEG-8000 (Hamilton Research, Cat #HR2-515), and 1% DMSO (Sigma, Cat #D4540) to a density of 5.6×10^5 cells/mL and infected with HBV at an MOI of 50. Immediately after infection, 90 μL of the cell/HBV mixture was added to a 96-well plate containing 10 μL of compound and incubated at 37° C. for 24 hours (2% final DMSO concentration). After the incubation, the infection media was removed and replaced with DMEM supplemented with 5% FBS, 50 U/mL penicillin-streptomycin, and 1% DMSO and incubated for an additional 72 hours. At the end of the incubation, the plates were spun at 1,800 rpm for 8 minutes and the supernatant was removed for HBeAg quantification using electrochemiluminescence enzyme-linked immunosorbent assays (ECL-ELISA).
To conduct the HBeAg ECL-ELISA, Lumitrack high-binding 96-well plates (Greiner, Cat #655074) were treated with 625 ng/mL HBeAg mAb (Biocheck, Cat #70426) in 1×DPBS for 2 hours at 25° C. with shaking. The HBeAg mAb solution was then removed and the plates treated with 1×DPBS containing 0.5% bovine serum albumin (BSA) (Sigma, Cat #A7030-100 g) for 2 hours at 25° C. with shaking. The HBeAg-coated plates were then washed 4 times with 1×DPBS containing 0.05% Tween 20 (DPBS-T) (Thermo Fisher Scientific, Cat #J61544-K2). Following the wash, 90 μL of HRP-conjugated antibody (Fitzgerald, Cat #61-H10K), diluted 1:8,000 in 1×DPBS-T containing 0.5% BSA, was added to the HBeAg-coated plates along with 10 μL of sample. The plates were then incubated for 2 hours at 25° C. with shaking. Following the incubation, the sample was then removed and 200 μL of 1×PBS-T was added and the plates were incubated for 10 minutes at 25° C. with shaking. The plates were then washed 6 times with 1×PBS-T and blotted dry. 80 μL of ECL substrate (Millipore, Cat #WBKLS0500) was then added to the plate and the luminescence was measured using a Tecan M1000 Pro plate reader.
Background: In an ELISA, binding on a coated surface is turned into a signal by an enzyme label.

pEC50: −log10 of the molar value. Some results are limits rather than exact numbers.

As to `CCCCC1CN(C2CCC(F)(F)CC2)c2cc(SC)c(O/C=C(\F)C(=O)O)cc2S(=O)(=O)N1C` (single isomer, unassigned) [Example 2b], the pEC50 (in general, the EC50 on a negative log10 scale, so that one unit is a factor of ten) is 6.00 to 7.00.
`CCCCC1CN(C2CCC(F)(F)CC2)c2cc(SC)c(O/C=C/C(=O)O)cc2S(=O)(=O)N1C` (stereo not drawn) [Example 3]: the pEC50 (Hepatitis B virus) is more than 7.00.
`CCCCC1CN(C2CCCOC2)c2cc(SC)c(O/C=C(\F)C(=O)OCC)cc2S(=O)(=O)N1C` (stereo not drawn) [Example 21] showed a pEC50 (Hepatitis B virus) of 6.00 to 7.00.
As for `CCCCC1CN(Cc2cccc(F)c2)c2cc(SC)c(O/C=C(\F)C(=O)O)cc2S(=O)(=O)N1C` (stereo not drawn) [Example 40], the pEC50 (Hepatitis B virus) was more than 7.00.
Same read-out and setting: for `CCCCC1CN(C2CCCOC2)c2cc(SC)c(O/C=C(\F)C(=O)O)cc2S(=O)(=O)N1C` (stereo not drawn) [Example 25] the value was more than 7.00.
The same measure, in the same setting: for `CCCCC1CN(C2CCC(F)CC2)c2cc(SC)c(O/C=C(\F)C(=O)O)cc2S(=O)(=O)N1C` (stereo not drawn) [Example 30] the value was more than 7.00; for `CCCCC1CN(c2ncccn2)c2cc(SC)c(O/C=C(\F)C(=O)O)cc2S(=O)(=O)N1C` (stereo not drawn) [Example 24], 6.00 to 7.00.
On the same count and under the same terms, for `CCCCC1CN(C2CCCC2)c2cc(SC)c(O/C=C(\F)C(=O)O)cc2S(=O)(=O)N1C` (stereo not drawn) [Example 32] the value was more than 7.00.
Consider `CCCCC1CN(C2CCOCC2)c2cc(SC)c(O/C=C(\F)C(=O)OCC)cc2S(=O)(=O)N1C` (stereo not drawn) [Example 19], for which, under “Hepatitis B virus”, the pEC50 is 6.00 to 7.00.
